Source: patent US9274101B2 (BIOLOG, Inc., priority 2001, dated 2016)
“Also recorded” adds a separate entry of the source. Where a SMILES comes first, the peptide text is derived from it.

System: ten strains of E. coli
Format: cell-based, Escherichia coli

Compound | carbon source utilization | carbon source utilization (text)
OC[C@H]1O[C@@H](O[C@@H]2[C@@H](CO)OC(O)(CO)[C@H]2O)[C@H](O)[C@@H](O)[C@H]1O (mixture of isomers) [Lactulose] | + and − | 
O=C(O)CC(O)C(=O)O (racemic) [D,L-malic acid] | + | 
CC(O)CO (centres unmarked) [1,2-propanediol] | − | 
CC(=O)O [Acetic acid] | + | 
OC[C@@H](O)[C@@H](O)[C@@H](O)CO [Adonitol] | − | 
O=C(O)CC(Br)C(=O)O (centres unmarked) [Bromo succinic acid] | + | 
O=C[C@H](O)[C@@H](O)[C@H](O[C@@H]1O[C@H](CO)[C@@H](O)[C@H](O)[C@H]1O)[C@H](O)CO [Cellobiose] | − | 
O=C(CO)[C@@H](O)[C@H](O)[C@H](O)CO [D-fructose] | + | 
O=C[C@H](O)[C@@H](O)[C@@H](O)[C@H](O)CO [D-galactose] | + | 
O=C(O)[C@H](O)[C@@H](O)[C@H](O)[C@H](O)CO [D-gluconic acid] | + | 
N[C@@H](C(=O)O)[C@@H](O)[C@H](O)[C@H](O)CO [D-glucosaminic acid] | − | 
O=C[C@H](O)[C@@H](O)[C@H](O)[C@H](O)C(=O)O [D-glucuronic acid] | + | 
O=C(O)C[C@@H](O)C(=O)O [D-malic acid] | + | 
OC[C@@H](O)[C@@H](O)[C@H](O)[C@H](O)CO [D-mannitol] | + | 
OC[C@H]1O[C@H](OCC2O[C@@H](O)[C@H](O)[C@@H](O)[C@@H]2O)[C@H](O)[C@@H](O)[C@H]1O (stereo partly drawn) [D-melibiose] | + | 
O=C[C@H](O)[C@H](O)[C@H](O)CO [D-ribose] | + | 
O=C(O)[C@@H](O)[C@@H](O)[C@H](O)[C@@H](O)C(=O)O [D-saccharic acid] | − and + | negative
OC[C@@H](O)[C@@H](O)[C@H](O)[C@@H](O)CO [D-sorbitol] | − and + | sorbitol negative
C[C@H](O)[C@@H](N)C(=O)O [D-threonine] | − | 
OC[C@H]1O[C@H](O[C@H]2O[C@H](CO)[C@@H](O)[C@H](O)[C@H]2O)[C@H](O)[C@@H](O)[C@@H]1O [D-trehalose] | + | 
O=C[C@H](O)[C@@H](O)[C@H](O)CO [D-xylose] | + and − | xylose-positive; also recorded: xylose-negative
OC[C@@H](O)[C@H](O)[C@H](O)[C@@H](O)CO [Dulcitol] | − and + | 
O=CO [Formic acid] | − and + | 
O=C(O)/C=C/C(=O)O [Fumaric acid] | + | 
OCC(O)CO [Glycerol] | + and − | 

Compound | carbon source utilization | carbon source utilization (text)
O=C(O)CO [Glycolic acid] | − and + | negative
NCC(=O)N[C@@H](CC(=O)O)C(=O)O [Glycyl-L-aspartic acid] (H-Gly-Asp-OH) | + | 
NCC(=O)N1CCC[C@H]1C(=O)O [Glycyl-L-proline] (H-Gly-Pro-OH) | + | 
O=CC(=O)O [Glyoxylic acid] | − and + | 
O=C[C@H](O)[C@@H](O)[C@@H](O)CO [L-arabinose] | + | 
C[C@H](O)[C@@H](O)[C@@H](O)[C@H](O)C=O [L-fucose] | + | 
C[C@H](O)C(=O)O [L-lactic acid] | + | 
O=C[C@H](O)[C@H](O)[C@@H](O)CO [L-lyxose] | − and + | 
O=C(O)C[C@H](O)C(=O)O [L-malic acid] | + | 
C[C@H](O)[C@H](O)[C@@H](O)[C@@H](O)C=O [L-rhamnose] | + | 
O=C(O)Cc1cccc(O)c1 [M-hydroxyphenylacetic acid] | − | 
OC[C@H]1O[C@H](O[C@H]2[C@H](O)[C@@H](O)[C@H](O)O[C@@H]2CO)[C@H](O)[C@@H](O)[C@@H]1O [Maltose] | + and − | negative
O=C(O)[C@@H](O)[C@H](O)[C@H](O)[C@@H](O)C(=O)O [Mucic acid] | + | 
O=C(O)Cc1ccc(O)cc1 [P-hydroxy phenylacetic acid] | − | 
CCC(=O)O [Propionic acid] | + and − | negative
O=C(O)CCC(=O)O [Succinic acid] | + | 
O=C(O)CC(CC(=O)O)C(=O)O [Tricarballylic acid] | − | 
CCC(O)C(=O)O (stereo not drawn) [α-hydroxy butyric acid] | + and − | negative
CCC(=O)C(=O)O [α-ketobutyric acid] | − and + | negative
O=C(O)CCC(=O)C(=O)O [α-ketoglutaric acid] | + and − | 
CO[C@H]1O[C@H](CO)[C@H](O)[C@H](O)[C@H]1O [α-methyl galactoside] | + | 
COC1OC(CO)C(O)C(O)C1O (stereo not drawn) [β-methyl glucoside] | + | 
Maltotriose | + and − | negative
Tween-20 | − | 
Tween-80 | − and + | 
